Measurements as given in PubChem BioAssay (NCI).
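1) Cells in 96-well plates. 2) Compound, 48 h, 5 concentrations. 3) Linear interpolation between surrounding doses. 4) Unreached endpoint = highest concentration. GI50 is the concentration that inhibits growth by half. TGI is the concentration that stops growth completely.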

Key:
Experiment in all cases: NCI tumour cell line growth inhibition, 48 h
SK-OV-3 ovarian = system: SK-OV-3 ovarian
UO-31 renal = system: UO-31 renal
MOLT-4 leukemia = system: MOLT-4 leukemia
ACHN renal = system: ACHN renal
KM12 colon = system: KM12 colon
M14 melanoma = system: M14 melanoma
HOP-62 NSCLC = system: HOP-62 NSCLC
OVCAR-5 ovarian = system: OVCAR-5 ovarian
HT29 colon = system: HT29 colon
NCI-H23 lung = system: NCI-H23 lung

Row | SMILES | TGI (SK-OV-3 ovarian) [µM] | TGI (UO-31 renal) [µM] | TGI (MOLT-4 leukemia) [µM] | TGI (ACHN renal) [µM] | TGI (KM12 colon) [µM] | TGI (M14 melanoma) [µM] | TGI (HOP-62 NSCLC) [µM] | TGI (OVCAR-5 ovarian) [µM] | TGI (HT29 colon) [µM] | TGI (NCI-H23 lung) [µM] | GI50 (SK-OV-3 ovarian) [µM] | GI50 (UO-31 renal) [µM] | GI50 (MOLT-4 leukemia) [µM] | GI50 (KM12 colon) [µM] | GI50 (HOP-62 NSCLC) [µM] | GI50 (OVCAR-5 ovarian) [µM] | GI50 (HT29 colon) [µM] | GI50 (NCI-H23 lung) [µM] | GI50 (ACHN renal) [µM] | GI50 (M14 melanoma) [µM]
1 | N#Cc1c(NC(=S)NC(=O)c2ccccc2)nc2c(c1-c1ccccc1)CCC2 | > 100 | > 100 | > 100 | > 100 | > 100 | > 100 | > 100 | > 100 | > 100 | > 100 |  |  |  |  |  |  |  |  |  | 
2 | CSC1=Nc2ccccc2N(C)c2c1c(-c1ccccc1)nn2C | > 100 |  | 31.7 | > 100 | > 100 | > 100 |  | > 100 | > 100 | > 100 |  |  |  |  |  |  |  |  |  | 
3 | O=C1CC(=O)N(c2ccccc2)N1/C(=C/c1ccccc1)c1ccccc1 | 76.5 | 29.2 | 6.54 | 89.5 | 66.5 | 46.6 | 54.5 | > 100 | 44.2 | 65.4 |  |  |  |  |  |  |  |  |  | 
4 | COC1OC(=O)[C@H]2O[N+]([O-])=C(C)[C@@H]12 (stereo partly specified) | > 100 | > 100 | > 100 |  | > 100 |  | > 100 | > 100 | > 100 | > 100 |  |  |  |  |  |  |  |  |  | 
5 | CCn1cc(C(c2ccc(Cl)cc2)n2ccnc2)c2cc(Br)ccc21 (stereo unspecified) | 33.3 | 20.1 | > 100 | 25.9 | 24.3 | 26.7 | 28.6 | 25.5 | 22.3 | 31.1 |  |  |  |  |  |  |  |  |  | 
6 | O=[Se]([O-])c1ccccc1.O=[Se]([O-])c1ccccc1.[OH3+].[OH3+].[Pt+2] | > 100 | 46.2 | > 42.4 |  | 25 |  | 31.2 | 39.1 | 14.6 | 88.4 | 56.6 | 5.78 | 3.62 | 3.41 | 18.5 | 15.5 | 3.09 | 7.01 |  | 
7 | Nc1n[nH]c(=O)[nH]1 | > 100 | > 100 | > 100 |  | > 100 |  | > 100 | > 100 | > 100 | > 100 |  |  |  |  |  |  |  |  |  | 
8 | Cc1[nH]c(/C=C2\C(=O)Nc3ccc(S(=O)(=O)Cc4c(Cl)cccc4Cl)cc32)c(C)c1C(=O)N1CCC[C@@H]1CN1CCCC1 | 59.1 | 3.07 |  | 3.07 | 4.77 | 2.92 | 4.55 | 3.72 | 3.07 | 12.3 | 22.4 | 1.41 |  | 0.138 | 1.99 | 1.95 | 1.62 | 4.38 | 1.63 | 1.5
9 | C=CC(=O)Nc1cccc(-c2nc(SC)nc(Nc3ccccc3OC)c2C#N)c1 | 26.9 | 3.18 | 83.5 | 3.32 | 12 | 5.64 | 6.17 | 5.92 |  | 5.99 | 6.09 | 1.42 | 2.62 | 3.02 | 2.25 | 2.26 |  | 2.15 | 1.7 | 2.22
10 | O=C(Nc1ccc(I)cc1C(=O)NCCO)c1cccs1 | > 100 | > 100 | > 100 | > 100 | > 100 | > 100 | > 100 | > 100 | > 100 | > 100 |  |  |  |  |  |  |  |  |  | 
